Results from patent US20190328869A1, “IMMUNOTHERAPEUTIC PRODUCT AND MDSC MODULATOR COMBINATION THERAPY” (Transgene SA, priority 2016, published 2019).

What was measured:
[1] = system: HBV-Core-specific and HBV-Polymerase-specific T cells producing IFNγ; assay: IFNγ-ELISpot, HBV-specific T cell responses (Full pool Core, VSA, N13F) in HBV-persistent mice; format: in vivo, C57BL/6J mice; details: splenocytes, day 76; cutoff 50 spots/10^6 cells; sildenafil 20 mg/kg/day D31-59 or D48-76
Procedure: The capacity of splenocytes to produce IFNγ after different in vitro stimulations was measured by an IFNγ-ELISpot assay at day 76 post AAV2/8-HBV injection. HBV-specific responses were assessed using the HBV-Core peptides (A, Full pool Core), -polymerase specific peptide VSA (B) or N13F (C). Results are shown as the number of spots per 10^6 splenocytes. Each dot represents an individual mouse and thick line represents mean values for each group (+/−SEM). The horizontal gray line represents the technical cutoff value (50 spots/10^6 cells) above which values are considered as positive T cell responses. For groups with a positive T cell response, incidence of mice per group is indicated on the graph.
The capacity of splenocytes to produce IFNγ after different in vitro stimulations was measured by an IFNγ-ELISpot assay at day 76 post AAV2/8-HBV injection. HBV-specific responses were assessed using the HBV-Core peptides (Full pool Core), -polymerase specific peptide VSA or N13F. Shown are mean values of responder mice (>50 spots/10^6 cells) (mean, SEM). […]
The HBV persistent mice used in the study were described by Dion et al. (2013, J Virol, 87(10):5554-63). […] This allows the analysis of HBV-specific viral parameters (HBsAg, HBeAg, HBcAg and viremia) as well as immunological read-outs (ICS, ELISpot or humoral immune responses). […]

HBV RNA (AAV2/8-HBV) = assay: Serum HBV RNA by RT-qPCR in HBV-persistent mice; format: in vivo, C57BL/6J mice; details: sildenafil only 5 mg/kg/day (group b), over the experiment
Procedure: The graph illustrates the median level of HBV RNA determined in the serum of 6 mice per group (groups a, b, e and f) treated with sildenafil at 5 mg/kg/day (group b) or with AdTG18201 alone (group e) or with a combination of AdTG18201 and sildenafil (at 5 mg/kg/day, group f). The control group a is untreated. The Y-axis indicates the median HBV RNA level (log 10 copies/mL) and the X-axis the time (number of days post-AAV2/8-HBV injection). Time points of AdTG18201 immunization (D36, D43, D50) are shown by a dashed line and the period of sildenafil treatment (from D31 to 59) is shown by a horizontal bar on the X axis.
HBV DNA/RNA extraction was performed using the MagMax-96 viral RNA isolation kit from Ambion according to manufacturer's protocol. Briefly, 50 μL of serum was added to 20 μL of reconstituted RNA/DNA binding beads. Plate was shaken for 1 minute on a thermomixer (Eppendorf Thermomixer compact) at 600-700 rpm. Then, 130 μL of lysis/binding solution, spiked with qPCR kit internal extraction control DNA, were added before additional shaking for 10 minutes. Beads were captured on a magnetic stand for 3 minutes and after 4 washes the supernatant was discarded. Residual washing solution was removed by drying the beads (shaking of the plate for 3 minutes at 900 rpm). Then, 50 μL of elution buffer was added (shaking of the plate for 3 minutes at 900 rpm). […]

CT26-MUC1 cells = assay: Survival in CT26 colon cancer tumor model; format: in vivo, BALB/c mice; details: 44 days post tumor implantation; MVATG9931 5×10^7 pfu day 2 and 9; sildenafil 80 mg/kg/day drinking water day 0 to 28; 12 mice per group

Question: `CCCc1nn(C)c2c(=O)nc(-c3cc(S(=O)(=O)N4CCN(C)CC4)ccc3OCC)[nH]c12` [sildenafil, 1-[[3-(4,7-dihydro-1-methyl-7-oxo-3-propyl-1H-pyrazolo[4,3-d]pyrimidin-5-yl)-4-ethoxyphenyl]sulfonyl]-4-methylpiperazine] was tested. Which “HBV-specific IFNg producing T responses (Full pool core, VSA, N13F)” value [1] did it give?
Answer: Its value is “did not show any IFNg producing T responses”.

Question: What about the “median level of viral RNA” value (HBV RNA (AAV2/8-HBV)) of the same molecule?
Answer: The value was “around 4.5 log 10 copies/mL serum”.

Question: What about the “mice still alive (survival)” value (CT26-MUC1 cells) of the same molecule?
Answer: The value was 20%.
